# Patent US10864216B2, “Phenothiazine diaminium salts and their use” (WisTa Laboratories Ltd., priority 2011, dated 2020)
# Marks after values point to notes of the source that are not given here.
# Columns and labels:
# [1] = target: T1, truncated tau (amino acids 297-391) in solution binding to solid-phase bound truncated tau (residues 297-390) (Homo sapiens, UniProt P10636); test: Solid phase assay for tau aggregation (tau-tau binding, B50); settings: concentration at which tau-tau binding is decreased by 50%; mean ± SE
# T1 construct: made in house
# T1 sequence (P10636 614-708): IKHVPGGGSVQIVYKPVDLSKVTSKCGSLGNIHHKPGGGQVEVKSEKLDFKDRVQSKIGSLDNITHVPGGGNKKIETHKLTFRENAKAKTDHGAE
# T1 sequence (P10636 614-707): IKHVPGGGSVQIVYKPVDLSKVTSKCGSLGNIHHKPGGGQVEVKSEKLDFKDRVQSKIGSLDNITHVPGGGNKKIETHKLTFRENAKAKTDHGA
# Source text: The tau-tau aggregation assay uses purified recombinant tau fragments in a solid-phase immunoassay. Methods are described in detail in e.g. WO 96/30766. Briefly, the assay measures the binding of truncated tau (amino acids 297-391) in solution to solid-phase bound truncated tau (residues 297-390). Binding of the former is detected with the antibody mAb 423, which specifically recognises peptides containing a C-terminal Glu-391 residue. The Tau complex formed in vitro is similar to the aggregated complex that forms in Alzheimer's disease as a consequence of the stability of the pathological Tau-Tau binding interaction through a 94/95-amino acid repeat domain (residues 297-390), found in the proteolytically stable core of the paired helical filament.
# The B50 value (expressed as mean±SE) is determined as the concentration of compound at which tau-tau binding is decreased by 50%.
# [2] = target: full-length human tau protein (htau40) and truncated tau (295-390, dGA) in 3T6 mouse cells (Homo sapiens, UniProt P10636); test: Cell-based tau aggregation assay
# female Wistar rats = test: 14 day oral administration to rats: toxicology and neutrophil response; format: in vivo; settings: for Neutrophils (total neutrophils as percentage of total white cells) / Dose-related deaths / Early neutrophils (frequency of presence of immature neutrophils per animal group): 14 days oral; for Neutrophils (total neutrophils as percentage of total white cells): 95 mg MT/kg/day Days 1-10, 60 mg MT/kg/day Days 11-14; for Dose-related deaths: animal numbers per group of 8 rats; for Early neutrophils (frequency of presence of immature neutrophils per animal group): animals per group of 8
# Source text: Table: Neutrophil response in rats following 14 day oral administration of different salt forms of LMT.
# rats = test: Studies on the hemopoietic system (methemoglobinemia), rat; format: in vivo
# minipigs = test: Studies on the hemopoietic system (methemoglobinemia), minipig; format: in vivo
# Experimental: Studies on the hemopoietic system were performed in rat, monkey and minipig.
# rat = test: 6-month study of LMT.2HBr in the rat; format: in vivo; settings: high dose 45 mg MT/kg/day
# Source text: The decreased neutrophils or neutropaenia observed after LMT.2HBr although reversible would make patients more susceptible to bacterial infections as their primary role is in destruction of bacteria.
# [3] = system: rat, stomach (non glandular); test: Gastric irritation: 28-day rat study with MTC or LMT.2HBr; format: in vivo; parameters: key to Gastritis, grade 3 (moderate): incidence / Inflammatory cell infiltration, grade 1 (minimal): incidence / Gastritis, grade 1 (minimal): incidence / Gastritis, grade 2 (slight): incidence / Gastritis, grade 3: incidence predicted with 10 per group / Gastritis, grade 1: incidence predicted with 10 per group / Gastritis, grade 2: incidence predicted with 10 per group: “—” = finding not present; 1 = minimal; 2 = slight; 3 = moderate; 4 = moderately severe; 5 = severe; settings: 90 mg/kg/day; for Gastritis, total incidence predicted with 10 per group: number of animals of 10; for Gastritis, grade 1: incidence predicted with 10 per group / Gastritis, grade 2: incidence predicted with 10 per group / Gastritis, grade 3: incidence predicted with 10 per group: scaled from 5 to 10 examined
# [4] = Solubility of LMT salts in aqueous HCl solutions at 37° C.; format: physicochemical; settings: lower limit complete dissolution, upper limit saturation
# Experimental: Two aqueous solutions (pH 2.00 and 3.01 at 21.4° C.) were prepared by carefully adding HCl (5 M) to deionised water. In each experiment a 5 ml aliquot of one of the aforementioned solutions was heated to 37° C. […] This step was repeated until no further dissolution took place.
# [5] = female rats, 28-day, terminal kill, 5 examined, cell = number of animals
# [6] = female rats, cell = number of animals
# [7] = male rats, 28-day, terminal kill, 5 examined, cell = number of animals
# [8] = male rats, cell = number of animals
# [9] = aqueous HCl solution pH 2.00 (21.4° C.)
# [10] = aqueous HCl solution pH 3.01 (21.4° C.)
compound,measurement,setting,value
"CN(C)c1ccc2c(c1)Sc1cc(N(C)C)ccc1N2 [LMT.2TsOH, N,N,N′,N′-Tetramethyl-10H-phenothiazine-3,7-diaminium bis(p-toluenesulfonate)]",IC50,[1],296 ± 37.9 µM
same,"THx, therapeutic index (THx = LD50/EC50)",[2]; bis(p-toluenesulfonate),140
"CN(C)c1ccc2c(c1)Sc1cc(N(C)C)ccc1N2 [LMT.EDSA, N,N,N′,N′-Tetramethyl-10H-phenothiazine-3,7-diaminium ethanedisulfonate]",IC50,[1],400 ± 17.6 µM
same,"THx, therapeutic index (THx = LD50/EC50)",[2]; listed as LMT•EDSA,115
same,EC50 (μM),[2]; listed as LMT•EDSA,0.68 ± 0.32 (n = 4) μM
"CN(C)c1ccc2c(c1)Sc1cc(N(C)C)ccc1N2 [LMT.NDSA, N,N,N′,N′-Tetramethyl-10H-phenothiazine-3,7-diaminium naphthalenedisulfonate]",IC50,[1],334 ± 63.2 µM
same,"THx, therapeutic index (THx = LD50/EC50)",[2]; listed as LMT•NDSA,108
same,EC50 (μM),[2]; listed as LMT•NDSA,0.71 ± 0.34 (n = 4) μM
"CN(C)c1ccc2c(c1)Sc1cc(N(C)C)ccc1N2 [LMT.2HBr, N,N,N′,N′-tetramethyl-10H-phenothiazine-3,7-diaminium di(bromide)]",Neutropaenia in prepared blood smears (mature neutrophils),female Wistar rats; 14 days,marked depletion of mature neutrophils
same,Numbers of neutrophilic granulocytes in the bone marrow,female Wistar rats; 14 days,considerably greater
same,Treatment-related deaths,female Wistar rats; 14 days,Treatment-related deaths occurred
same,Neutrophils (total neutrophils as percentage of total white cells),female Wistar rats,3.00%*
same,Dose-related deaths,female Wistar rats,2/8
same,Early neutrophils (frequency of presence of immature neutrophils per animal group),female Wistar rats,8/8
same,Lowest dose at which methemoglobinemia was observed,rats,15 mg MT/kg/day
same,Lowest dose at which methemoglobinemia was observed,minipigs,10 mg MT/kg/day
same,Mature neutrophils and granulocytes in the bone marrow,rat,Decreased numbers of mature neutrophils and granulocytes
same,IC50,[1],472 ± 27.6 µM
same,"THx, therapeutic index (THx = LD50/EC50)",[2]; listed as LMT•2HBr,92
same,EC50 (μM),[2]; listed as LMT•2HBr,0.66 ± 0.15 (n = 8) μM
same,"Gastritis, grade 1 (minimal): incidence",[3]; [5],—
same,"Gastritis, grade 2 (slight): incidence",[3]; [5],1
same,"Gastritis, grade 3 (moderate): incidence",[3]; [5],1
same,"Inflammatory cell infiltration, grade 1 (minimal): incidence",[3]; [5],—
same,"Gastritis, total incidence predicted with 10 per group",[3]; female rats,4
same,"Gastritis, grade 1: incidence predicted with 10 per group",[3]; [6],—
same,"Gastritis, grade 2: incidence predicted with 10 per group",[3]; [6],2
same,"Gastritis, grade 3: incidence predicted with 10 per group",[3]; [6],2
same,"Gastritis, grade 1 (minimal): incidence",[3]; [7],1
same,"Gastritis, grade 2 (slight): incidence",[3]; [7],—
same,"Gastritis, grade 3 (moderate): incidence",[3]; [7],1
same,"Gastritis, total incidence predicted with 10 per group",[3]; male rats,4
same,"Gastritis, grade 1: incidence predicted with 10 per group",[3]; [8],2
same,"Gastritis, grade 2: incidence predicted with 10 per group",[3]; [8],—
same,"Gastritis, grade 3: incidence predicted with 10 per group",[3]; [8],2
same,Solubility g/5 ml (37° C.),[4]; [9],4.822-5.096 g/5 ml
same,Solubility g/5 ml (37° C.),[4]; [10],4.726-5.236 g/5 ml
"O=S(=O)(O)CCS(=O)(=O)O [EDSA, ethanedisulfonic acid, reference compound]",IC50,[1],> 500 µM
"CN(C)c1ccc2c(c1)Sc1cc(N(C)C)ccc1N2 [LMT.2EsOH, N,N,N′,N′-Tetramethyl-10H-phenothiazine-3,7-diaminium bis(ethanesulfonate)]",IC50,[1],297 ± 75.1 µM
same,"THx, therapeutic index (THx = LD50/EC50)",[2]; listed as LMT•2EsOH,100
same,EC50 (μM),[2]; listed as LMT•2EsOH,0.52 ± 0.13 (n = 3) μM
"CN(C)c1ccc2c(c1)Sc1cc(N(C)C)ccc1N2.Cl.Cl [LMT.2HCl, N,N,N′,N′-tetramethyl-10H-phenothiazine-3,7-diaminium dichloride]",Neutropaenia in prepared blood smears (mature neutrophils),female Wistar rats; 14 days,no decrease
same,Neutrophils (total neutrophils as percentage of total white cells),female Wistar rats,19.90%
same,Dose-related deaths,female Wistar rats,0/8
same,Early neutrophils (frequency of presence of immature neutrophils per animal group),female Wistar rats,2/8
same,IC50,[1],361 ± 38.2 µM
same,"THx, therapeutic index (THx = LD50/EC50)",[2],102
same,Solubility g/5 ml (37° C.),[4]; [9],4.404-4.961 g/5 ml
same,Solubility g/5 ml (37° C.),[4]; [10],4.978-6.029 g/5 ml
"CS(=O)(=O)O [MSA, methansulfonic acid, reference compound]",IC50,[1],> 500 µM
